Columns and labels:
[1] = test system: A549; experiment: CCK8 proliferation inhibition, A549; assay type: cell-based; settings: Homo sapiens, 192 h, CCK8, 8 days after drug treatment
Method: (§1) The above normally growing cells were digested with a cell trypsinization solution, centrifuged, counted, and seeded into a 96-well plate at an appropriate cell density (2000 cells/well) at 100 µL/well. The next day after cell seeding, the compounds at different concentrations were added to the wells. Three replicate wells were set for each concentration point, and a corresponding DMSO negative control group was also set. CCK8 solution was added to each well 8 days after drug treatment. The plate was incubated at 37 °C for a period of time (OD450 of the vehicle group reached 1.0 or higher) before the absorbance at 450 nm was read using a microplate reader. The inhibition rates were calculated, and the EC50 values were determined by fitting using the GraphPad Prism 7.0 software. Table 2. EC50 values of compounds at cellular level

[2] = test system: SDMA; experiment: SDMA Inhibition Assay in HCT-116-MTAP^-/- cells; assay type: cell-based; settings: Homo sapiens, 96 hours
Method: (§2) The next day, the cells were treated with the compounds at different concentrations (with an initial concentration of 10 µM, 5-fold dilution, 9 concentration gradients). After 96 hours, the culture medium was pipetted out and the cells were washed 2 times with 100 µL of PBS. The cells were then fixed with 4% paraformaldehyde and incubated at room temperature for 20 min. The fixative solution was discarded, and the cells were washed with PBS. 150 µL of specialized blocking solution (containing 1% Triton-100) was added to each well for blocking at room temperature for 2 hours, and the plate was washed with PBS to remove excess blocking solution. […] The cells were incubated at 4 °C overnight. The next day, the cells were separately washed 2 times with 1× PBST. […] The cells were incubated at room temperature for 2 hours. The cells were washed 2 times with 1× PBST and 1 time with PBS. Fluorescence signals at 700 nm and 800 nm were separately detected using a Li-COR Odyssey two-color near-infrared laser imager. The inhibition rates were calculated, and the EC50 values were determined by fitting using the GraphPad Prism 7.0 software. Table 3. Inhibition of SDMA by test compounds

[3] = test system: SDMA; experiment: SDMA Inhibition Assay in A549 cells; assay type: cell-based; settings: Homo sapiens, A549, 96 hours
Method: as §2

[4] = test system: HCT-116-MTAP^-/-; experiment: CCK8 proliferation inhibition, HCT-116-MTAP^-/-; assay type: cell-based; settings: Homo sapiens, 192 h; HCT-116-MTAP^-/- (MTAP-deficient); CCK8, 8 days after drug treatment
Method: as §1

[5] = test system: HCT-116; experiment: CCK8 proliferation inhibition, HCT-116; assay type: cell-based; settings: Homo sapiens, 192 h, CCK8, 8 days after drug treatment
Method: as §1

[6] = test system: SDMA; experiment: SDMA Inhibition Assay in HCT-116 cells; assay type: cell-based; settings: Homo sapiens, HCT-116, 96 hours
Method: as §2

[7] = Pharmacokinetic assay in rats; assay type: in vivo, SD rats; settings: rat; for MRT inf: read-out: MRT(0-∞)
Method: In this experimental example, the pharmacokinetic behavior of the test compounds after administration by intravenous injection (IV) and oral gavage (PO) in SD rats was tested.
On the day of administration, rats were weighed for actual body weight, and the administration volume was calculated. Each compound was tested in two groups with 3 rats in each group; one group was subjected to administration by single intravenous injection, and the other group was subjected to administration by single oral gavage. The whole blood samples were collected via the jugular vein at prescribed time points (0.25 h, 0.5 h, 1 h, 2 h, 4 h, 8 h, and 24 h after administration). After the blood sample collection, the samples were immediately transferred to labeled commercial sample tubes containing K2-EDTA (0.85-1.15 mg), followed by centrifugation (3200× g, 4 °C, 10 min) and plasma collection. The plasma was transferred to a pre-cooled centrifuge tube, frozen in dry ice, and then stored in an ultra-low temperature freezer at -60 °C or lower until the LC-MS/MS analysis was performed.
Plasma concentrations were determined by the LC-MS/MS method. Plasma drug concentration data for the compounds were processed using a non-compartmental model in the WinNonlin Version 6.3 (Pharsight, Mountain View, CA) pharmacokinetic software. The relevant pharmacokinetic parameters were calculated by a linear-log trapezoidal method.

[8] = Pharmacokinetic assay in mice; assay type: in vivo, Balb/c mice; settings: mouse; for MRT inf: read-out: MRT(0-∞)
Method: Eighteen male Balb/c mice aged 6 to 8 weeks were randomly divided into 2 groups (IV group and PO group). The corresponding compounds were administered to the animals in the IV group by tail intravenous injection at 2 mg/kg, and the corresponding compounds were administered to the animals in the PO group by oral gavage at 10 mg/kg or 100 mg/kg. The animals in the IV group were allowed free access to food and water, and the animals in the PO group were fasted overnight before administration and were fed 4 h after administration. Throughout the experiment, the animals were allowed free access to water. Plasma samples were separately collected at 0.083 h (only group IV), 0.25 h, 0.5 h, 1 h, 2 h, 4 h, 8 h, and 24 h after administration. About 100 µL of blood was collected from the orbit of the animal, placed into a 1.5 mL anticoagulation centrifuge tube, and centrifuged at 8000 rpm and 4 °C for 10 min. The upper plasma sample was transferred to an EP tube. The plasma samples were stored in a refrigerator at -80 °C until sample analysis. Pharmacokinetic parameters of the drug were calculated based on the drug concentration-time data, including the peak concentration Cmax, peak time Tmax, clearance rate CL, steady state apparent volume of distribution Vss, area under drug-time curve AUC, elimination half-life t1/2, bioavailability, and the like. Data below the 80% lower limit of quantification were excluded from the calculation of pharmacokinetic parameters.

[9] = male, Balb/c, plasma, 2 mg/kg, IV 2mpk
[10] = male, Balb/c, plasma, 10 mg/kg, PO 10mpk

Cn1ncc2c(N)nc3cc(F)c(C(=O)N(Cc4ccc5c(c4)OC(F)(F)O5)[C@@H]4CCOC4)cc3c21 [Example I-22]
EC50 [1]: 18.5 nM
EC50 [2]: 1.1 nM
EC50 [3]: 0.6 nM
EC50 [4]: 5.6 nM
EC50 [5]: 935 nM

CC1OCc2c1c(N)nc1cc(F)c(C(=O)N3CCOC[C@@H]3c3ccc4c(c3)OC(F)(F)O4)cc21 (single isomer, unassigned) [I-34 (PEAK2)]
EC50 [1]: 43.5 nM
EC50 [2]: 1.1 nM
EC50 [3]: 1.3 nM
EC50 [4]: 8.3 nM
EC50 [5]: 980 nM
EC50 [6]: 60.7 nM

C[C@@H]1COCC(c2ccc3c(c2)OC(F)(F)O3)N1C(=O)c1cc2c(cc1F)nc(N)c1cnn(C)c12 (some centres unmarked) [Example I-11]
EC50 [1]: 2.5 nM
EC50 [2]: 0.4 nM
EC50 [3]: 0.3 nM
EC50 [4]: 0.9 nM

Cn1ncc2c(N)nc3cc(F)c(C(=O)N4CCCC[C@@H]4c4ccc5c(c4)OC(F)(F)O5)cc3c21 [Example I-80]
EC50 [1]: 12.8 nM
EC50 [2]: 0.9 nM
EC50 [3]: 2.2 nM
EC50 [4]: 4.7 nM
EC50 [5]: 201 nM
EC50 [6]: 65 nM

CC(C)N(Cc1ccc2c(c1)OC(F)(F)O2)C(=O)c1ccc2nc(N)c3cnn(C)c3c2c1 [Example I-14]
EC50 [1]: 36.9 nM
EC50 [2]: 5.3 nM
EC50 [3]: 2 nM
EC50 [4]: 7.9 nM
EC50 [5]: 1200 nM
EC50 [6]: 374 nM

Cn1cnc(CN(Cc2ccc3c(c2)OC(F)(F)O3)C(=O)c2cc3c(cc2F)nc(N)c2cnn(C)c23)n1 [Example I-41]
EC50 [1]: 16.8 nM
EC50 [2]: 0.7 nM
EC50 [3]: 1.1 nM
EC50 [4]: 1.6 nM

COCCN(Cc1ccc2c(c1)OC(F)(F)O2)C(=O)c1cc2c(cc1F)nc(N)c1cnn(C)c12 [Example I-23]
EC50 [1]: 7.7 nM
EC50 [2]: 1.3 nM
EC50 [3]: 0.8 nM
EC50 [4]: 2.1 nM

Cn1ncc2c(N)nc3cc(F)c(C(=O)N(Cc4ccc5c(c4)OC(F)(F)O5)[C@H]4CCOC4)cc3c21 [Example I-25]
EC50 [1]: 33 nM
EC50 [2]: 1.4 nM
EC50 [3]: 0.8 nM
EC50 [4]: 5.3 nM
EC50 [5]: 1320 nM
EC50 [6]: 123 nM

CC(C)N(Cc1ccc2c(c1)OC(F)(F)O2)C(=O)c1cc2c(cc1F)nc(N)c1cnn(C)c12 [Example I-13]
EC50 [1]: 10.8 nM
EC50 [2]: 3.5 nM
EC50 [3]: 2.1 nM
EC50 [4]: 3.4 nM

C[C@@H]1COCC(c2ccc3c(c2)OC(F)(F)O3)N1C(=O)c1ccc2nc(N)c3cnn(C)c3c2c1 (some centres unmarked) [Example I-12]
EC50 [1]: 8.9 nM
EC50 [2]: 0.5 nM
EC50 [3]: 0.3 nM
EC50 [4]: 2.7 nM
EC50 [5]: 287 nM

CN(Cc1ccc2c(c1)OC(F)(F)O2)C(=O)c1ccc2nc(N)c3cnn(C)c3c2c1 [Example I-2]
AUC(0-inf) ([7]; SD, plasma, 2 mg/kg, IV 2mpk): 6.91 µM·h
AUC(0-t) ([7]; SD, plasma, 2 mg/kg, IV 2mpk): 6.42 µM·h
C0 ([7]; SD, plasma, 2 mg/kg, IV 2mpk): 2340 nM
MRT inf ([7]; SD, plasma, 2 mg/kg, IV 2mpk): 4.3 h
Vd ([7]; SD, plasma, 2 mg/kg, IV 2mpk, read-out: Vz): 3.4 L/kg
AUC(0-inf) ([7]; SD, plasma, 10 mg/kg, PO 10mpk): 17.2 µM·h
AUC(0-t) ([7]; SD, plasma, 10 mg/kg, PO 10mpk): 14.8 µM·h
Cmax ([7]; SD, plasma, 10 mg/kg, PO 10mpk): 1680 nM
Tmax ([7]; SD, plasma, 10 mg/kg, PO 10mpk): 2.3 h
MRT inf ([7]; SD, plasma, 10 mg/kg, PO 10mpk): 7.2 h
CLz ([7]; IV 2mpk): 13 mL/min/kg
R_AUC(t/∞) ([7]; IV 2mpk): 91.6%
t1/2z ([7]; IV 2mpk): 3.5 h
R_AUC(t/∞) ([7]; PO 10mpk): 86.6%
t1/2z ([7]; PO 10mpk): 4.7 h
F ([7]; PO 10mpk (IV reference 2mpk; 0.2mpk for I-7)): 49.9%
AUC(0-inf) [8, 9]: 4.11 µM·h
AUC(0-t) [8, 9]: 3.53 µM·h
C0 [8, 9]: 1520 nM
MRT inf [8, 9]: 4 h
Vd ([8]; male, Balb/c, plasma, 2 mg/kg, IV 2mpk, read-out: Vz): 4.7 L/kg
AUC(0-inf) [8, 10]: 18.8 µM·h
AUC(0-t) [8, 10]: 18.1 µM·h
Cmax [8, 10]: 2190 nM
Tmax [8, 10]: 1 h
MRT inf [8, 10]: 7.1 h
CLz ([8]; IV 2mpk): 18.3 mL/min/kg
R_AUC(t/∞) ([8]; IV 2mpk): 85.8%
t1/2z ([8]; IV 2mpk): 2.8 h
R_AUC(t/∞) ([8]; PO 10mpk): 96.3%
t1/2z ([8]; PO 10mpk): 5.5 h
F ([8]; PO 10mpk vs IV 2mpk): 91.5%
EC50 [2]: 8.3 nM
EC50 [3]: 5.1 nM
EC50 [4]: 42.6 nM
EC50 [5]: 6740 nM
EC50 [6]: 1010 nM

CC1OCc2c1c(N)nc1cc(F)c(C(=O)N3C(c4ccc5c(c4)OC(F)(F)O5)COC[C@H]3C)cc21 (some centres unmarked) [Example I-39]
EC50 [1]: 18.5 nM
EC50 [2]: 0.7 nM
EC50 [3]: 0.9 nM
EC50 [4]: 2.5 nM

COC[C@@H](C)N(Cc1ccc2c(c1)OC(F)(F)O2)C(=O)c1cc2c(cc1F)nc(N)c1cnn(C)c12 [Example I-24]
EC50 [1]: 8 nM
EC50 [2]: 1.7 nM
EC50 [3]: 1 nM
EC50 [4]: 3.2 nM

CCN(Cc1ccc2c(c1)OC(F)(F)O2)C(=O)c1cc2c(cc1F)nc(N)c1cnn(C)c12 [Example I-6]
EC50 [1]: 27.4 nM
EC50 [2]: 2 nM
EC50 [3]: 1.9 nM
EC50 [4]: 2.4 nM
EC50 [5]: 389 nM

COC[C@H](C)N(Cc1ccc2c(c1)OC(F)(F)O2)C(=O)c1cc2c(cc1F)nc(N)c1cnn(C)c12 [Example I-26]
EC50 [1]: 10.1 nM
EC50 [2]: 1.7 nM
EC50 [3]: 0.6 nM
EC50 [4]: 3.5 nM
